Measurements taken from PMC7915858, “Complementary Effects of Carbamylated and Citrullinated LL37 in Autoimmunity and Inflammation in Systemic Lupus Erythematosus” (International Journal of Molecular Sciences, 2021).

Key:
[1] = system: SLE serum antibody; assay: ELISA for antibody reactivity of SLE sera to carb-/cit-/native LL37 and carb-REV, and its correlation with SLEDAI; assay type: binding, human
Procedure: Anti-native LL37/cit-LL37/carb-LL37 antibodies were measured as described. Briefly, 96-well flat-bottom plates (Non-Binding surface polystyrene, Corning, Glendale, AZ USA) were coated with 2 μg/mL of native LL37, cit-LL37 or carb-LL37 in carbonate buffer (0.1 M NaHCHO3, pH 9) for 2 h (or overnight) and washed four times with PBS plus 0.1% Tween-20. This washing buffer was used for washing at all steps. The blocking buffer containing 2% bovine serum albumin (BSA, Sigma) in PBS was used for at least 1 h (or overnight) to saturate unspecific binding sites. After washing, sera were diluted at various concentrations (usually at 1:100 or 1:200) in PBS + 2% BSA followed by 1 h incubation with a horseradish peroxidase–conjugated (HRP) goat anti-human IgG (Sigma-Aldrich), diluted 1:10,000 in PBS. The color was developed for 5 min with 3,3′,5,5′-tetramethylbenzidine (TMB) substrate (Sigma-Aldrich). The reaction was stopped by adding 50 μL of 2 N H2SO4 and absorbance determined at 450 nm with a reference wavelength of 540 nm. Responses were considered positive when the OD measured exceeded the mean OD values measured in healthy donors’ plasma plus two standard deviations (+2SD), calculated on the HD group values, as described.
(§1) Differences between mean values were assessed by Wilcoxon’s matched-pair signed rank test, to compare responses to antigens and control antigens in the same donor. We used Mann-Whitney test for comparison of T-cell and antibody responses between groups of patients and HD. Statistical significance was set at p < 0.05. Correlation analyses were performed by Spearman’s rank-correlation test. Data were analyzed by GraphPad Prism 7.0 or SPSS software.

[2] = system: SLE CD4 T-cells; assay: T-cell proliferation (BrdU incorporation, flow cytometry); assay type: cell-based, human
Procedure: (§2) PBMCs were purified from EDTA-treated blood, on Ficoll-Hypaque (Pharmacia Fine Chemicals, Uppsala, Sweden) and were incubated (10^5 cells/well) in 96-well-flat-bottom-microplates (BD) in T-cell-medium (RPMI 1640, 10% heat-inactivated human serum, HS, Gibco), 2 mM L-glutamine, 10 U/mL penicillin and 100 μg/mL streptomycin), with/without peptides. We performed assays on fresh cells, within 1-to-3 h from collection or on PBMCs frozen in 90% FCS−10% DMSO, whose viability we assessed by Trypan blue exclusion, with an inverted microscope. Recovery of live cells was between 65 and 85% of the frozen number. At day 3 and 5, BrdU was added (1 μg/mL). BrdU-incorporation was detected by APC-labeled anti-BrdU antibody (BD Pharmingen), after surface staining for CD4, CD3, CD8 and analyzed by flow cytometry (Gallios, BeckmanCoulter, Brea, CA, USA). Internal control for T-cell viability and proliferation was PHA treatment (2 μg/mL). SI for proliferation was calculated by dividing percent of BrdU-staining in the presence of each peptide antigen (LL37, carb-LL37, cit-LL37, LL37 reverse, REV; cit-LL37 reverse, cit-REV; carb-LL37 reverse, carb-REV) by the percent obtained in the untreated cells. SI for proliferation was considered positive when the values of percent of BrdU positive cells was three times higher than the values obtained with the control peptides (SI > 3). Assays were repeated twice with each patient. In rare cases in which background proliferation (culture with REV, cit-REV, carb-REV), exceeded antigen-specific proliferation (that is response to LL37, carb-LL37, cit-LL37), the assay was repeated three times. Concomitant phenotype analysis of LL37-responder T-cells included staining for CD3, CD4, CD8, CXCR5 (CXCR5 was assessed on BrdU/CD3/CD4-positive cells).
as §1

[3] = system: native LL37-P1-specific T-cells (HLA-DRB5*0101 tetramer); assay: Peptide-MHC-tetramer staining of T-cells after PBMC stimulation; assay type: cell-based, human; details: 6 days stimulation, CD38hi CD4 T-cells
Procedure: Peptide-MHC-tetramers were from ImmunAware (Denmark). Staining was performed for 40 min with 1microL of tetramer suspension at 37 °C, followed by staining for CD4 (4 °C, 20 min), without washing. After incubation with anti-CD4 antibody, cells were washed, resuspended in PBS and kept at 4 °C. Before flow cytometry-acquisition, cells were labeled with PercP-conjugated 7-AAD to exclude dead cells. The peptide-MHC-tetramers used in this study are: the HLA-DR15-P1: tetramer of HLA-DRB1*1501 LLGDFFRKSKEKIGK (corresponding to the first aa at the NH2-term of the mature native LL37), (PE-conjugated) and the control peptide-MHC-tetramer called DR15-ctr: tetramer of HLA-DRB1*1501 […]1-169-185 (PE-conjugated). The other couple of peptide-MHC-tetramers used were HLA-DRB5*0101 loaded with the same LL37 epitope as above and the control tetramer HLA-DRB5*0101 loaded with the control epitope PVSKMRMATPLLMQA (CLIP-derived).

[4] = system: pDCs; assay: IFN-α production by purified pDCs stimulated with peptide-DNA complexes; assay type: cell-based, human; details: peptide without DNA, 24 h, ELISA
Procedure: Buffy-coats from HD were from Centro Trasfusionale, Policlinico Umberto I, Rome, IT. After separation of mononuclear cells by Ficoll centrifugation, pDCs were purified as described, by using the Diamond Plasmacytoid Dendritic Cell Isolation Kit (Miltenyi Biotec, Bergisch Gladbach, Germany) to obtain 99% purity. Purified pDCs were seeded into 96-well round-bottom plates at 3.5/5 × 10^4 cells per well in 200 μL RPMI 1640 (GIBCO), supplemented with 10% fetal calf serum (FCS), 1% Hepes and 1% sodium pyruvate. LL37, cit-LL37 and carb-LL37 were premixed with total human genomic DNA (extracted from PBMC of HD, see below) (15 μg/mL). After 15 min incubation at room temperature the mix was added to the pDC cultures. IFN-α in supernatants was measured by ELISA (MabTech, Stockholm, Sweden), after 24 h (according to the manufacturer’s instructions).
Human DNA was extracted from PBMCs, as reported and was fragmented by sonication. Five milligrams of DNA in a volume of 300 μL were fragmented using the Sonics Vibra Cell sonicator (Newtown, CT, USA), with the following settings: 2, 4 and 10 sonication cycles (30 s on, 30 s off, in ice) to obtain DNA fragment sizes between 100 and 1000 bp. The resulting size distribution was controlled by 2% agarose gel electrophoresis.

[5] = system: memory B-cells; details: cited from earlier work
From the text: LL37 is able to activate innate immune cells and B-cells after forming complexes with nucleic acids in a special molecular conformation, suitable for TLR stimulation. PDCs, as well as B-cells, are both activated by LL37-DNA or LL37-RNA complexes.

[6] = system: SLE CD4 T-cells (CXCR5); assay: CXCR5 (TFH marker) expression on stimulated CD4 T-cells, flow cytometry; assay type: cell-based, human; details: representative plot
From the text: Antibodies to CD4, CD8, CD3 conjugated with various fluorochromes (FITC, phycoerythrin (PE), peridinin-chlorophyll-protein (PerCp), allophycocyanin (APC), PE-Cy7) were from BD Biosciences or eBiosciences (San Diego, CA). For further LL37-specific T-cell characterization and B-cell characterization we used: APC-Cy7-CXCR5 (FAB190), APC or PE-CD38, CD19, CD20, CD27, antibodies, purchased from BD Biosciences, eBiosciences, Novus Biologicals (Littleton, CO), R&D (Minneapolis, MN). Appropriate isotype-matched controls were purchased from the same companies. PerCp-7-AAD was from BD Pharmingen, DAPI from Invitrogen (Thermo Fisher, Carlsbad, CA, USA).
as §2

| Substance | Antibody reactivity in SLE patients with renal damage versus without renal damage ([1]; ELISA, N=6 with and N=44 without renal damage, Mann-Whitney, Figure S3 panel a P 0.047) | Correlation of antibody reactivity with SLEDAI ([1]; Spearman) | SLE patients responding by T-cell proliferation ([2]; BrdU, positive if SI > 3, carb-LL37 8 of 25, native LL37 17 of 31, cit-LL37 16 of 31 SLE patients) | Control (Ctr-B5) tetramer positive T-cells ([3]; Ctr-B5 tetr, lower panels Figure S6) | LL37-specific T-cells (LL37-B5 tetramer positive) ([3]; LL37-B5 tetr, upper panels Figure S6) | IFN-α response of pDCs to peptide alone [4] | Stimulation of memory B-cells to mature into plasma cells, LL37-DNA complexes [5] | SLE patients showing an antibody response to the antigen ([1]; ELISA, 2 μg/mL coated antigen, sera 1:100 or 1:200, OD 450 nm, positive: OD > mean HD + 2SD, carb-LL37 28 of 45, carb-REV 8 of 47 SLE patients) | SLE serum antibody reactivity (OD) compared to healthy donors ([1]; ELISA, OD, Mann-Whitney's test) | BrdU-positive CD3+CD4+ T-cells ([2]; BrdU staining, representative zebra plot, Figure S5a) | CXCR5-positive cells among total CD3+CD4+ cells ([6]; Figure S5b left panels) | CXCR5-positive cells among CD3+CD4+BrdU+ cells ([6]; Figure S5b middle panels) | CXCR5-positive cells among CD3+CD4+BrdU- cells ([6]; Figure S5b right panels) |
| --- | --- | --- | --- | --- | --- | --- | --- | --- | --- | --- | --- | --- | --- |
| LLGDFFRKSKEKIGKEFKRIVQRIKDFLRNLVPRTES [LL37, mature human cathelicidin antimicrobial peptide, COOH-terminal part (res. 134–170), purchased from Proteogenix] | non-significant anti-cit- and anti-native-LL37 antibody increase | both responses also correlated with SLEDAI | 55% | 0.2% | 4.27% | no IFN-α response | able to stimulate memory B-cells to mature into plasma cells |  |  |  |  |  |  |
| SETRPVLNRLFDK*IRQVIRKEFEK*GIK*EK*SK*RFFDGLL* [carb-REV, control carbamylated reverse (REV) LL37, reference compound] |  |  |  |  |  |  |  | 17% | also significant, as compared to response of HD but significantly lower than the response to carb-LL37 | 5.35% | 3.28% | 8.76% | 3.26% |
